For the assay, the target named is T1, CLK4 (Homo sapiens, UniProt Q9HAZ1).
T1 construct: purchased Thermo Fisher Scientific (Life Technologies) SelectScreen
The experiment in a line: SelectScreen LanthaScreen. The settings on record: read-out: % displacement. It counts as binding. The method in brief:
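SelectScreen broad panel; activity (Z'LYTE, Adapta) plus binding formats. ATP: Km app for CSF1R Z'LYTE; 10 for CAMK1 Adapta. Readout = % per kinase.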
On the technique in general: Time-resolved FRET reads energy transfer from a long-lived donor to a nearby acceptor.

T1 sequence (Q9HAZ1 whole entry): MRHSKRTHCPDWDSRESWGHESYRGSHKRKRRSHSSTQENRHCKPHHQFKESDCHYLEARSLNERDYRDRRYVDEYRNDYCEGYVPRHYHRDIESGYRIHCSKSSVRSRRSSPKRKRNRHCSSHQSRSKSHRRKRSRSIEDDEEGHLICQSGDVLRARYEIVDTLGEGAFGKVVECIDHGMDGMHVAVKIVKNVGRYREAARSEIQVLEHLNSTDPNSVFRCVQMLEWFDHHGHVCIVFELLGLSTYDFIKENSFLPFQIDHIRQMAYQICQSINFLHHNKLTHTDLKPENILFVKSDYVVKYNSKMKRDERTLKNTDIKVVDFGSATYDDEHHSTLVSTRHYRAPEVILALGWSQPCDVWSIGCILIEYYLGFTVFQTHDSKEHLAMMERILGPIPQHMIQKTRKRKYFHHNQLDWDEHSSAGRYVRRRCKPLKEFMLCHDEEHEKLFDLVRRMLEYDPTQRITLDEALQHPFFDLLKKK

With `CN(C(=O)CN1CCOCC1)c1ccc2sc3c(-c4cccc5c(=O)cc(N6CC7CCC(C6)O7)oc45)cccc3c2c1` [NU5455], the inhibition at 1 µM worked out at 1.4%.

Values taken from article PMC6934184, “Selective DNA-PKcs inhibition extends the therapeutic index of localized radiotherapy and chemotherapy” (The Journal of Clinical Investigation, 2019).
